Like-named read-outs stand apart in the source and are kept apart here. Marks after values point to notes of the source that are not given here.
What was measured:
[1] = In vitro liver microsome stability (RLM); type: in vitro ADME; settings: rat, rat liver microsomes, 0.5 mg/mL microsomes, NADPH, read-out: RLM, t1/2
Method: In vitro stability was determined in Human (HLM), Rat (RLM), Mouse (MsLM), and dog (DLM) Liver Microsomes. All liver microsomes were purchased from a commercial supplier (e.g. XenoTech). The reaction mixture, minus NADPH, was prepared as described below. The test compound was added into the reaction mixture at a final concentration of 1 μM or co-dosed with their deuterated analog(s) at 1 μM each. The control compound, testosterone, was run simultaneously with the test compound in a separate reaction. The reaction mixture (without cofactor) was equilibrated in a shaking water bath at 37° C. for 5 minutes. The reaction was initiated by the addition of the cofactor, and the mixture was incubated in a shaking water bath at 37° C. Aliquots (150 μL) were withdrawn at 0, 5, 10, 20, 30, 60, and 120 minutes. Test compound and testosterone samples were immediately combined with 150 μL of ice-cold acetonitrile (ACN) containing 0.1% formic acid and internal standard to terminate the reaction. The samples were then mixed and centrifuged to precipitate proteins. All samples were assayed by LC-MS/MS using electrospray ionization. The peak area response ratio (PARR) of analyte to internal standard at each time point was compared to the PARR at time 0 to determine the percent remaining at each time point. Half-lives were calculated using GraphPad software, fitting to a single-phase exponential decay equation.

[2] = biological target: T1, 5-HT2A receptor (Homo sapiens (Human), UniProt P28223); experiment: 5-HT2A radioligand competition binding ([3H]LSD or [3H]ketanserin)
[3] = biological target: MAO-A (Homo sapiens (Human), UniProt P21397); experiment: Recombinant human MAO-A activity (stability); type: in vitro ADME; settings: hrMAO 0.02 mg/mL, read-out: MAO-A, t1/2
Method: hrMAO-A and MAO control were purchased from XenoTech. The reaction mixture was prepared as described below. The test compound was added into the reaction mixture at a final concentration of 1 μM or co-dosed with their deuterated analog at 1 μM each. The positive control kynuramine (25 μM) was run simultaneously with the test compound in a separate reaction. The reaction mixture (without test compounds or kynuramine) was equilibrated in a shaking water bath at 37° C. for 5 minutes. The reaction was initiated by the addition of the test compound or kynuramine, and the mixture was incubated in a shaking water bath at 37° C. Aliquots (150 μL) of the test compound reaction mixture were withdrawn at 0, 5, 10, 20, 30, 60, and 120 minutes. Aliquots (150 μL) of the positive control reaction mixture were withdrawn at 0 and 30 minutes. Test compound(s) and kynuramine samples were immediately combined with 150 μL of ice-cold 100% acetonitrile containing 0.1% formic acid and internal standard (0.2 μM metoprolol) to terminate the reaction. The samples were then mixed and centrifuged to precipitate proteins. All samples were assayed by LC-MS/MS. The peak area response ratio (PARR) of analyte to internal standard at each time point was compared to the PARR at time 0 to determine the percent remaining at each time point. Half-lives were calculated using GraphPad software, fitting to a single-phase exponential decay equation.

[4] = tested on: mice; experiment: Head-twitch response (HTR) screening in mice; type: in vivo, mouse
Method: Protocols were followed according to Canal C E, Morgan D. Head-twitch response in rodents induced by the hallucinogen 2,5-dimethoxy-4-iodoamphetamine: a comprehensive history, a re-evaluation of mechanisms, and its utility as a model. […] Mice were housed in standard laboratory cages with ad libitum access to food and water and were acclimated to the vivarium for at least one week prior to testing in a procedure room. In a typical experiment, mice were injected 3 mg/kg of test article subcutaneously. Mice were placed immediately thereafter in a clear, polycarbonate box (46×20×20 cm), and HTRs were counted at various time points after administration using hand-held tally counters. In a separate experiment, plasma and brain samples were collected at 15 and 160 minutes after administration of test compounds to measure plasma and brain concentrations. Quantification was performed using LC-MS/MS method (LLOQ, 9 nM).

[5] = biological target: human 5-HT2B receptor (Homo sapiens (Human), UniProt P41595); experiment: 5-HT2B functional assay, IP1 (IPOne); type: cell-based; settings: for Emax: IP1 assay, relative to 5-HT
Method: 5-HT2A,2B,2C receptor-mediated Gq activation—canonical signaling pathways—[phosphoinositide hydrolysis leading to the production of inositol phosphate 1 (IP1, IPOne, Cisbio assay) or direct G-protein activation using TRUPATH technology]were measured as previously described (Porter, R. H. P., Benwell, K. R., Lamb, H., Malcolm, C. S., Allen, N. F., Revell, D. F., Adams, D. R. and Sheardown, M. J., 1999, Functional characterization of agonists at recombinant human 5-HT2a, 5HT2b and 5-HT2c receptors in CHO-K1 cells, Brit J Pharmacol 128, 13; Olsen, R. H. J., DiBerto, J. F., English, J. G. et al. TRUPATH, an open-source biosensor platform for interrogating the GPCR transducerome. […] Briefly, for the IPOne assay, for 5-HT2ARs, CHO-K1 or HEK-293 cells were incubated with test articles and 5-HT (positive control) in stimulation buffer containing LiCl. After incubation, cells were lysed and fluorescence acceptor and donor were added. FRET was measured after 60 min at room temperature using a microplate reader (Envision, Perkin Elmer). TRUPATH assays followed a similar workflow, except that different reagents were used, and LiCl was not included in the samples; the protocol was based on the report by Olsen, R. H. J. et al., cited above.

[6] = Plasma and brain concentrations after dosing in mice (screening); type: in vivo, mouse; settings: mouse; for concentration at 15 min / concentration at 160 min: sc, mice, 3 mg/kg s.c.; for Kp at 160 min: brain/plasma, subcutaneous, 3 mg/kg, 160 min after 3 mg/kg, read-out: brain/plasma ratio, 160 min
[7] = biological target: T1, 5-HT2A receptor; experiment: 5-HT2A functional assay, IP1 (IPOne); type: cell-based; settings: IP1 assay; for EC50: read-out: 5-HT2A EC50; for Emax: relative to 5-HT
Method: After incubation, cells were lysed and fluorescence acceptor and donor were added. FRET was measured after 60 min at room temperature using a microplate reader (Envision, Perkin Elmer). TRUPATH assays followed a similar workflow, except that different reagents were used, and LiCl was not included in the samples; the protocol was based on the report by Olsen, R. H. J. et al., cited above.

[8] = read-out: 5-HT2A, Ki, radioligand [3H]LSD
[9] = read-out: 5-HT2A, Ki, radioligand [3H]ketanserin
[10] = brain, read-out: Brain, 160 min
[11] = plasma, read-out: Plasma, 15 min
[12] = plasma, read-out: Plasma, 160 min

Chain of human 5-HT2B receptor (P41595 whole entry, looked up): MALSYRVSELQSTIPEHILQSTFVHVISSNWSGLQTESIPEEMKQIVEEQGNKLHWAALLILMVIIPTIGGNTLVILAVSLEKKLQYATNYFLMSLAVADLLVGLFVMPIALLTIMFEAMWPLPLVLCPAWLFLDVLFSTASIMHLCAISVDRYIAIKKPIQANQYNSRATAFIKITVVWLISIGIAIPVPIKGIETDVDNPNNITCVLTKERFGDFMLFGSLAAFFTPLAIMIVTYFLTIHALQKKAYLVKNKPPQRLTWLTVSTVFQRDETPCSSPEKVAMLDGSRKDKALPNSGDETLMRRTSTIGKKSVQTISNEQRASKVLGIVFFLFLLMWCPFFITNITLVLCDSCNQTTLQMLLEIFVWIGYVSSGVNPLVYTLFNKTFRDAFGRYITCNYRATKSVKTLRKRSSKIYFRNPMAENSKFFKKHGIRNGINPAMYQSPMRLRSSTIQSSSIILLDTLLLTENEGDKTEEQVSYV
Chain of MAO-A (P21397 whole entry, looked up): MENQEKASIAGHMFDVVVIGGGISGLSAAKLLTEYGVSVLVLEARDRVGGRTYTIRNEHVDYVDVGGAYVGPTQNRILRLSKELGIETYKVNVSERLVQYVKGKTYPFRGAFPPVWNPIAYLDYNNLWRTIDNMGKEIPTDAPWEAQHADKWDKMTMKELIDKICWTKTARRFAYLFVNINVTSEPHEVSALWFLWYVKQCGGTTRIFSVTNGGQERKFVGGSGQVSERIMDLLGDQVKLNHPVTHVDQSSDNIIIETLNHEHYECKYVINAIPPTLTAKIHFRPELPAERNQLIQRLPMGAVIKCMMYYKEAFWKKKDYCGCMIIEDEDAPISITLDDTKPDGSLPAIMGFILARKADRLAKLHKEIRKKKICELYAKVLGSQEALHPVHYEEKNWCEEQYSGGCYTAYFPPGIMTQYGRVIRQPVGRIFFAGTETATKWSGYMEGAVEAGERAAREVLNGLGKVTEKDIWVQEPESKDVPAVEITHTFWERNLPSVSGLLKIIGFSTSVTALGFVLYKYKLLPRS

[2H]C([2H])([2H])Oc1cc(C2CCCC2)c(OC([2H])([2H])[2H])cc1CCN [II-4, 2-(4-cyclopentyl-2,5-bis(methoxy-d3)phenyl)ethan-1-amine]
half-life at 1 μM [1]: 7.5 min
Ki [2]: > 150 nM
Ki [2, 8]: 202 nM
half-life at 1 μM [3]: > 120 min

[2H]C([2H])([2H])Oc1cc(C(F)(F)F)c(OC([2H])([2H])[2H])cc1CCN [II-23, 2-(2,5-bis(methoxy-d3)-4-(trifluoromethyl)phenyl)ethan-1-amine]
half-life at 1 μM [1]: 21.4 min
Ki [2, 9]: 55 nM
half-life at 1 μM [3]: > 120 min

[2H]C([2H])([2H])Oc1cc(SC)c(OC([2H])([2H])[2H])cc1CCN [II-1, 2-(2,5-bis(methoxy-d3)-4-(methylthio)phenyl)ethan-1-amine]
half-life at 1 μM [1]: 5.7 min
Ki [2]: > 150 nM
Ki [2, 9]: 174 nM
HTR 15-25 min ([4]; measured 0-15 min): 21 ##

COc1cc(OCCC(F)(F)F)c(OC)cc1CCN [Compound I-5, 2-(2,5-dimethoxy-4-(3,3,3-trifluoropropoxy)phenyl)ethan-1-amine]
half-life at 1 μM [1]: > 120 min
Ki [2]: > 150 nM

COc1cc(SCCC(F)(F)F)c(OC)cc1CCN [Compound I-2, 2-(2,5-dimethoxy-4-((3,3,3-trifluoropropyl)thio)phenyl)ethan-1-amine]
half-life at 1 μM [1]: 24.8 min
affinity at 5-HT2A receptors (in words) [2]: high affinity
Ki [2, 8]: 8.5 nM
half-life at 1 μM [3]: 30.9 min

[2H]C([2H])([2H])C(c1cc(OC)c(CCN)cc1OC)(C([2H])([2H])[2H])C([2H])([2H])[2H] [III-2, 2-(2,5-dimethoxy-4-(2-(methyl-d3)propan-2-yl-1,1,1,3,3,3-d6)phenyl)ethan-1-amine]
half-life at 1 μM [1]: 2.5 min
Ki [2]: 10 nM

[2H]C([2H])(N)Cc1cc(OC)c(SC)cc1OC [IV-1, 2-(2,5-dimethoxy-4-(methylthio)phenyl)ethan-1,1-d2-1-amine]
half-life at 1 μM [1]: 5.3 min
Ki [2]: > 150 nM
Ki [2, 9]: 357 nM

[2H]C([2H])([2H])Oc1cc(C(C)(C)C)c(OC([2H])([2H])[2H])cc1CCN [II-3, 2-(4-(tert-butyl)-2,5-bis(methoxy-d3)phenyl)ethan-1-amine]
half-life at 1 μM [1]: 2.4 min
Ki [2, 8]: 11 nM

COc1cc(C(C)(C)C)c(OC)cc1CCN [VI-1, 2-(4-(tert-butyl)-2,5-dimethoxyphenyl)ethan-1-amine]
half-life at 1 μM [1]: 2.4 min
Ki [2, 8]: 9.9 nM
EC50 [5]: 25 nM
Emax [5]: 87%
HTR 15-25 min ([4]; mice, 3 mg/kg s.c.): 24.5
HTR 160-170 min ([4]; mice, 3 mg/kg s.c.): 17.7
concentration at 15 min ([6]; brain, read-out: Brain 15 min): 2900 nM
concentration at 160 min [6, 10]: 4600 nM
Kp at 160 min [6]: 57.1
concentration at 15 min [6, 11]: 250 nM
concentration at 160 min [6, 12]: 80 nM
2A/2B EC50 Selectivity [7]: 6
EC50 [7]: 4.2 nM
Emax [7]: 87%

COc1cc(OCCCF)c(OC)cc1CCN [Compound I-7, 2-(4-(3-fluoropropoxy)-2,5-dimethoxyphenyl)ethan-1-amine]
half-life at 1 μM [1]: > 120 min
Ki [2]: > 150 nM
Ki [2, 8]: 2600 nM
half-life at 1 μM [3]: > 120 min

COc1cc(SCC(F)(F)C(F)F)c(OC)cc1CCN [Compound I-10, 2-(2,5-dimethoxy-4-((2,2,3,3-tetrafluoropropyl)thio)phenyl)ethan-1-amine]
affinity at 5-HT2A receptors (in words) [2]: high affinity
EC50 [5]: 240 nM
Emax [5]: 84%
HTR 15-25 min ([4]; mice, 3 mg/kg s.c.): 3.4
HTR 160-170 min ([4]; mice, 3 mg/kg s.c.): 2.7
concentration at 15 min ([6]; brain, read-out: Brain 15 min): 900 nM
concentration at 160 min [6, 10]: 1100 nM
Kp at 160 min [6]: 12.3
concentration at 15 min [6, 11]: 900 nM
concentration at 160 min [6, 12]: 100 nM
2A/2B EC50 Selectivity [7]: 2.7
EC50 [7]: 89 nM
Emax [7]: 76%

COc1cc(OCCC(F)F)c(OC)cc1CCN [Compound I-6, 2-(4-(3,3-difluoropropoxy)-2,5-dimethoxyphenyl)ethan-1-amine]
half-life at 1 μM [1]: > 120 min
Ki [2]: > 150 nM

COc1cc(C2CCCC2)c(OC)cc1CCN [Compound I-13, 2-(4-cyclopentyl-2,5-dimethoxyphenyl)ethan-1-amine]
half-life at 1 μM [1]: 7.8 min
affinity at 5-HT2A receptors (in words) [2]: appreciable affinity
Ki [2, 8]: 150 nM
half-life at 1 μM [3]: > 120 min
HTR (in words) ([4]; 3 mg/kg): did not elicit an HTR
HTR 15-25 min ([4]; mice, 3 mg/kg s.c.): 2.7

C#CCSc1cc(OC)c(CCN)cc1OC [Compound I-11, 2-(2,5-dimethoxy-4-(prop-2-yn-1-ylthio)phenyl)ethan-1-amine]
Ki [2, 8]: 1.3 nM
HTR 15-25 min ([4]; calculated using 0-30 min): 24.5 ####
HTR 160-170 min ([4]; mice, 3 mg/kg s.c.): 16.7

COc1cc(SCCCF)c(OC)cc1CCN [Compound I-4, 2-(4-((3-fluoropropyl)thio)-2,5-dimethoxyphenyl)ethan-1-amine]
half-life at 1 μM [1]: 11 min
affinity at 5-HT2A receptors (in words) [2]: high affinity
Ki [2, 8]: 12 nM
half-life at 1 μM [3]: 45 min

COc1cc(SC)c(OC)cc1CCN [Reference Compound 3, 2-(2,5-dimethoxy-4-(methylthio)phenyl)ethan-1-amine, reference compound]
half-life at 1 μM [1]: 5.2 min
Ki [2, 9]: 296 nM
half-life at 1 μM [3]: > 120 min
HTR 15-25 min ([4]; measured 0-15 min): 19 ##
